Source: paper PMC8725163 (Acta Crystallographica. Section D, Structural Biology, 2022)
pKd: −log10 of the molar value.

Molecular target: T1, BpsDsbA (oxidized) (Burkholderia pseudomallei, UniProt Q63Y08)
T1 construct: gene dsbA
Test: biochemical

T1 sequence (Q63Y08 16-212 limits assumed): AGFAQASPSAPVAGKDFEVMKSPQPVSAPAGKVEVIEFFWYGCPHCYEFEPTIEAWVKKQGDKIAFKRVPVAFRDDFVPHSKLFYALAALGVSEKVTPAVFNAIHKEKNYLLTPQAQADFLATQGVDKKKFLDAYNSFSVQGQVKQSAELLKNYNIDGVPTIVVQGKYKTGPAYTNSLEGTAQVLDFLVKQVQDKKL

For `COc1ccc(S(=O)(=O)Nc2ccccc2)cc1` [compound 2, 4-methoxy-N-phenylbenzenesulfonamide], the pKd was < 2.70.
